Laboratory results as given in the NIST ThermoML archive (doi:10.1016/j.jct.2013.04.015).

Experiments:
[1] = for surface tension liquid-gas: Wilhelmy plate method; for mass density: 101 kPa, Liquid, Vibrating tube method
[2] = xn = mol fraction of the nth substance listed; settings: for surface tension liquid-gas: Wilhelmy plate method; for mass density: 101 kPa, Liquid, Vibrating tube method

CCO [ethanol]
[1]
Settings | mass density [kg/m3] | surface tension liquid-gas [mN/m]
298.15 K | 784.7 | 22.11
308.15 K | 776.2 | 21.13
318.15 K | 767 | 20.48

CO [methanol] + CCCCn1cc[n+](C)c1.C[C@H](O)C(=O)[O-]
[2], x2 = 0
Settings | mass density [kg/m3] | surface tension liquid-gas [mN/m]
298.15 K | 786.4 | 22.22
308.15 K | 776.9 | 21.46
318.15 K | 767.2 | 20.46

CCCCn1cc[n+](C)c1.C[C@H](O)C(=O)[O-] [1-butyl-3-methylimidazolium L-lactate] + CO
[2]
Settings | mass density [kg/m3] | surface tension liquid-gas [mN/m]
298.15 K, x1 = 0.0121 | – | 23.38
298.15 K, x1 = 0.0353 | – | 24.72
298.15 K, x1 = 0.0496 | – | 25.63
298.15 K, x1 = 0.0699 | – | 26.72
298.15 K, x1 = 0.0901 | – | 28.06
298.15 K, x1 = 0.0998 | 960.5 | –
298.15 K, x1 = 0.1051 | – | 28.6
298.15 K, x1 = 0.1968 | 1022.4 | –
298.15 K, x1 = 0.1995 | – | 31.01
298.15 K, x1 = 0.3 | 1063.1 | –
298.15 K, x1 = 0.3011 | – | 33.55
298.15 K, x1 = 0.3999 | 1075.9 | –
298.15 K, x1 = 0.4038 | – | 35.7
298.15 K, x1 = 0.5 | 1082.9 | –
298.15 K, x1 = 0.5029 | – | 36.97
298.15 K, x1 = 0.5996 | 1088 | –
298.15 K, x1 = 0.614 | – | 38.06
298.15 K, x1 = 0.7001 | 1090.5 | –
298.15 K, x1 = 0.7037 | – | 38.57
298.15 K, x1 = 0.8002 | 1091.5 | –
298.15 K, x1 = 0.8056 | – | 39.25
298.15 K, x1 = 0.8988 | 1097.8 | –
298.15 K, x1 = 0.9152 | – | 40.89
298.15 K, x1 = 1 | 1111.2 | 42.92
308.15 K, x1 = 0.0115 | – | 22.56
308.15 K, x1 = 0.0346 | – | 24.12
308.15 K, x1 = 0.0544 | – | 25.1
308.15 K, x1 = 0.0702 | – | 26.05
308.15 K, x1 = 0.091 | – | 27.26
308.15 K, x1 = 0.0998 | 956.6 | –
308.15 K, x1 = 0.1058 | – | 28.32
308.15 K, x1 = 0.1968 | 1019.4 | –
308.15 K, x1 = 0.2002 | – | 30.7
308.15 K, x1 = 0.3 | 1057.4 | –
308.15 K, x1 = 0.3033 | – | 33.15
308.15 K, x1 = 0.3999 | 1070.5 | –
308.15 K, x1 = 0.4003 | – | 35.37
308.15 K, x1 = 0.5 | 1077.4 | –
308.15 K, x1 = 0.5032 | – | 36.69
308.15 K, x1 = 0.5913 | – | 37.46
308.15 K, x1 = 0.5996 | 1084.2 | –
308.15 K, x1 = 0.7001 | 1085.4 | –
308.15 K, x1 = 0.7064 | – | 37.66
308.15 K, x1 = 0.791 | – | 38.03
308.15 K, x1 = 0.8002 | 1087.2 | –
308.15 K, x1 = 0.8938 | – | 39.37
308.15 K, x1 = 0.8988 | 1089 | –
308.15 K, x1 = 1 | 1104.2 | 42.37
318.15 K, x1 = 0.0118 | – | 21.91
318.15 K, x1 = 0.0364 | – | 23.48
318.15 K, x1 = 0.0527 | – | 24.57
318.15 K, x1 = 0.0711 | – | 25.49
318.15 K, x1 = 0.0907 | – | 26.91
318.15 K, x1 = 0.0998 | 953.2 | –
318.15 K, x1 = 0.1085 | – | 27.8
318.15 K, x1 = 0.1968 | 1014.3 | –
318.15 K, x1 = 0.2003 | – | 29.96
318.15 K, x1 = 0.3 | 1051.9 | –
318.15 K, x1 = 0.302 | – | 32.56
318.15 K, x1 = 0.3999 | 1066.8 | –
318.15 K, x1 = 0.4072 | – | 35.2
318.15 K, x1 = 0.5 | 1074.7 | –
318.15 K, x1 = 0.5096 | – | 36.52
318.15 K, x1 = 0.5996 | 1077.7 | –
318.15 K, x1 = 0.6103 | – | 36.74
318.15 K, x1 = 0.7001 | 1078 | –
318.15 K, x1 = 0.7054 | – | 36.95
318.15 K, x1 = 0.8002 | 1078.9 | –
318.15 K, x1 = 0.8108 | – | 37.31
318.15 K, x1 = 0.8845 | – | 38.3
318.15 K, x1 = 0.8988 | 1079.9 | –
318.15 K, x1 = 1 | 1097.7 | 42.01

CCCCn1cc[n+](C)c1.C[C@H](O)C(=O)[O-] [1-butyl-3-methylimidazolium L-lactate] + CCCCO
[2]
Settings | mass density [kg/m3] | surface tension liquid-gas [mN/m]
298.15 K, x1 = 0.01 | – | 24.18
298.15 K, x1 = 0.0297 | – | 24.53
298.15 K, x1 = 0.0482 | – | 24.7
298.15 K, x1 = 0.0601 | – | 24.83
298.15 K, x1 = 0.0888 | – | 25.1
298.15 K, x1 = 0.0999 | 875.7 | –
298.15 K, x1 = 0.1001 | – | 25.17
298.15 K, x1 = 0.1996 | 927.3 | 26.2
298.15 K, x1 = 0.3016 | – | 27.25
298.15 K, x1 = 0.303 | 968.1 | –
298.15 K, x1 = 0.3998 | 997.8 | –
298.15 K, x1 = 0.4004 | – | 28.42
298.15 K, x1 = 0.4997 | – | 29.67
298.15 K, x1 = 0.5 | 1024.2 | –
298.15 K, x1 = 0.5889 | – | 31.11
298.15 K, x1 = 0.6002 | 1044.6 | –
298.15 K, x1 = 0.6979 | – | 32.64
298.15 K, x1 = 0.7001 | 1060.8 | –
298.15 K, x1 = 0.8 | 1076.4 | –
298.15 K, x1 = 0.8012 | – | 34.73
298.15 K, x1 = 0.8747 | – | 36.6
298.15 K, x1 = 0.8999 | 1091.8 | –
298.15 K, x1 = 1 | 1111.2 | 42.92
308.15 K, x1 = 0.0101 | – | 23.63
308.15 K, x1 = 0.0295 | – | 23.87
308.15 K, x1 = 0.0495 | – | 24.18
308.15 K, x1 = 0.0604 | – | 24.22
308.15 K, x1 = 0.0884 | – | 24.59
308.15 K, x1 = 0.0999 | 868.3 | 24.67
308.15 K, x1 = 0.1996 | 920.3 | –
308.15 K, x1 = 0.1999 | – | 25.68
308.15 K, x1 = 0.3008 | – | 26.81
308.15 K, x1 = 0.303 | 960.8 | –
308.15 K, x1 = 0.3994 | – | 28.18
308.15 K, x1 = 0.3998 | 990.5 | –
308.15 K, x1 = 0.4989 | – | 29.41
308.15 K, x1 = 0.5 | 1017.2 | –
308.15 K, x1 = 0.5877 | – | 30.83
308.15 K, x1 = 0.6002 | 1037.4 | –
308.15 K, x1 = 0.695 | – | 32.5
308.15 K, x1 = 0.7001 | 1053.9 | –
308.15 K, x1 = 0.7981 | – | 34.33
308.15 K, x1 = 0.8 | 1069 | –
308.15 K, x1 = 0.8807 | – | 36.48
308.15 K, x1 = 0.8999 | 1084.2 | –
308.15 K, x1 = 1 | 1104.2 | 42.37
318.15 K, x1 = 0.0101 | – | 23.08
318.15 K, x1 = 0.0296 | – | 23.25
318.15 K, x1 = 0.0485 | – | 23.59
318.15 K, x1 = 0.061 | – | 23.71
318.15 K, x1 = 0.0903 | – | 23.93
318.15 K, x1 = 0.0999 | 859.6 | –
318.15 K, x1 = 0.1004 | – | 24.17
318.15 K, x1 = 0.1996 | 913 | –
318.15 K, x1 = 0.2004 | – | 25.18
318.15 K, x1 = 0.3011 | – | 26.53
318.15 K, x1 = 0.303 | 953.9 | –
318.15 K, x1 = 0.3986 | – | 28
318.15 K, x1 = 0.3998 | 983.4 | –
318.15 K, x1 = 0.4989 | – | 29.33
318.15 K, x1 = 0.5 | 1010.1 | –
318.15 K, x1 = 0.59 | – | 30.68
318.15 K, x1 = 0.6002 | 1030.9 | –
318.15 K, x1 = 0.688 | – | 32.24
318.15 K, x1 = 0.7001 | 1047.5 | –
318.15 K, x1 = 0.7993 | – | 34.23
318.15 K, x1 = 0.8 | 1062 | –
318.15 K, x1 = 0.8735 | – | 36.03
318.15 K, x1 = 0.8999 | 1077.3 | –
318.15 K, x1 = 1 | 1097.7 | 42.01

O [water] + CCCCn1cc[n+](C)c1.C[C@H](O)C(=O)[O-]
[2], x2 = 0
Settings | mass density [kg/m3] | surface tension liquid-gas [mN/m]
298.15 K | – | 71.85
308.15 K | 994.1 | 70.48
318.15 K | – | 68.89

CCO [ethanol] + CCCCn1cc[n+](C)c1.C[C@H](O)C(=O)[O-]
[2], x2 = 0
Settings | mass density [kg/m3] | surface tension liquid-gas [mN/m]
298.15 K | 784.7 | 22.11
308.15 K | 776.2 | 21.13
318.15 K | 767 | 20.48
